The results in this text go back to patent US6528494B2 (priority 1996, dated 2003).

Where a name gives a salt, the structure may show the parent alone.

Common to all, as to type: cell-based
For one test, the target named is adenosine 2a receptor (Homo sapiens, UniProt P29274). In words: Agonist activity against adenosine 2a receptor (CHO cells, cAMP/SPAP reporter). The conditions noted are these: CHO cells transfected with human receptor; basal cAMP via SPAP; mean of all the versions tested. The method, then: (§1) (1) Agonist activity against adenosine 2a, adenosine 1 and adenosine 3 receptor subtypes.
Sequence of adenosine 2a receptor (P29274 whole entry): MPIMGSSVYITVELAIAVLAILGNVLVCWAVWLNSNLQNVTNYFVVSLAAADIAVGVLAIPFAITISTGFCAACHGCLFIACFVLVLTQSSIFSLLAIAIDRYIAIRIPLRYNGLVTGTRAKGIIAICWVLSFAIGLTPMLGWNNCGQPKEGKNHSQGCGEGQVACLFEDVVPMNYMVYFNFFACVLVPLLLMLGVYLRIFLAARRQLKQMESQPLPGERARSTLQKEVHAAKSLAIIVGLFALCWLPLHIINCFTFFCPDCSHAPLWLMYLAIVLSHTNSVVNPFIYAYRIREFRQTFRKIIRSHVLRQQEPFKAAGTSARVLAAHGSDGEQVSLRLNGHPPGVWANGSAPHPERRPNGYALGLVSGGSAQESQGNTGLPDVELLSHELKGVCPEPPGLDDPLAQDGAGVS
(§2) The effect of test compounds was determined by their effects on basal levels of cAMP (A2a) or on forskolin-enhanced cAMP (A1 and A3) as reflected by changes in levels of SPAP.

Another test has as its target T1, adenosine 1 receptor (Homo sapiens, UniProt P30542).
T1 sequence (P30542 1-326): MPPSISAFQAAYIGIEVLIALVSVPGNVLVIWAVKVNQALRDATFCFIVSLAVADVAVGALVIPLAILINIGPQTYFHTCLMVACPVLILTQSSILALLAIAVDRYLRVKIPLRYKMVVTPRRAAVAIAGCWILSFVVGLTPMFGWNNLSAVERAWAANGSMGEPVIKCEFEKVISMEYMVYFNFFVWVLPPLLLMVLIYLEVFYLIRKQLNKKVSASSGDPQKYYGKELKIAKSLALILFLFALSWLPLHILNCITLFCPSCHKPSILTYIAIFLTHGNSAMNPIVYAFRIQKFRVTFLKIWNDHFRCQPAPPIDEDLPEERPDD
The test is described as follows: Agonist activity against adenosine 1 receptor (CHO cells, forskolin-enhanced cAMP/SPAP reporter). The conditions noted are these: CHO cells transfected with human receptor; forskolin-enhanced cAMP via SPAP; mean of all the versions tested. The method, then: as §1, §2

Another test addresses T2, adenosine 3 receptor (Homo sapiens, UniProt P0DMS8).
T2 sequence (P0DMS8 1-318): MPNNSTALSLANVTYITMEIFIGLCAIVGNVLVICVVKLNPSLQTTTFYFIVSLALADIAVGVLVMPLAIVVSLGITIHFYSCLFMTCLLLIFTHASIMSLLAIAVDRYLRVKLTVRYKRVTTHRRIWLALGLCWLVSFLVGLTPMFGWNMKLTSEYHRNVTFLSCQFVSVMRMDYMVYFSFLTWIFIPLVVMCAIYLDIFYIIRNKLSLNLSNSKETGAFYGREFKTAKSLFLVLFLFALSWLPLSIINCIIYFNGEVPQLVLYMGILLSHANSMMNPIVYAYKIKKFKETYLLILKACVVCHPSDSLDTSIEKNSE
In words: Agonist activity against adenosine 3 receptor (CHO cells, forskolin-enhanced cAMP/SPAP reporter). The conditions noted are these: CHO cells transfected with human receptor; forskolin-enhanced cAMP via SPAP; mean of all the versions tested. How it is done: as §1, §2

Regarding `CCn1nnc([C@H]2O[C@@H](n3cnc4c(NCC(c5ccccc5)c5ccccc5)nc(N[C@H]5CC[C@H](N)CC5)nc43)[C@H](O)[C@@H]2O)n1` (relative stereo) [Example 1, rel-(2R,3R,4S,5R)-2-[2-(trans-4-Amino-cyclohexylamino)-6-(2,2-diphenylethylamino)-purin-9-yl]-5-(2-ethyl-2H-tetrazol-5-yl)-tetrahydro-furan-3,4-diol], the “A2a EC50 as a ratio of that of NECA” value at adenosine 2a receptor is listed as 0.53. Besides, the “A1 EC50 as a ratio of that of NECA” value at adenosine 1 receptor was determined as 89.3. Further, at adenosine 3 receptor, the “A3 EC50 as a ratio of that of NECA” value is given as over 549.
In the same order, the values of `CCn1nnc([C@H]2O[C@@H](n3cnc4c(NCC(c5ccccc5)c5ccccc5)nc(NC5CCNC5)nc43)[C@H](O)[C@@H]2O)n1.O=C(O)C(F)(F)F.O=C(O)C(F)(F)F.O=C(O)C(F)(F)F` (stereo partly drawn) [Example 2, (2R,3R,4S,5R)-2-[6-(2,2-Diphenyl-ethylamino)-2-(pyrrolidin-3-ylamino)-purin-9-yl]-5-(2-ethyl-2H-tetrazol-5-yl)-tetrahydro-furan-3,4-diol tris(Trifluoroacetate)] are 0.92, 123.6 and over 216.
In the same order, the values of `CCn1nnc([C@H]2O[C@@H](n3cnc4c(NCc5cccc(I)c5)nc(NCCc5cn(C)cn5)nc43)[C@H](O)[C@@H]2O)n1` [Example 3, (2R,3S,4R,5R)-2-(2-Ethyl-2H-tetrazol-5-yl)-5-{6-(3-iodo-benzylamino)-2-[2-(1-methyl-1H-imidazol-4-yl)-ethylamino]-purin-9-yl}-tetrahydro-furan-3,4-diol] are 0.84, 230.8 and over 116.
Take `CCn1nnc([C@H]2O[C@@H](n3cnc4c(NCCc5ccccc5)nc(NCCc5cn(C)cn5)nc43)[C@H](O)[C@@H]2O)n1.Cl.Cl` [Example 4, (2R,3S,4R,5R)-2-(2-Ethyl-2H-tetrazol-5-yl)-5-{2-[2-(1-methyl-1H-imidazol-4-yl)-ethylamino]-6-phenethylamino-purin-9-yl}-tetrahydro-furan-3,4-diol Dihydrochloride]: the “A2a EC50 as a ratio of that of NECA” value on adenosine 2a receptor amounted to 0.149. Besides, the “A1 EC50 as a ratio of that of NECA” value at adenosine 1 receptor is given as 205.4. Moreover, the “A3 EC50 as a ratio of that of NECA” value on adenosine 3 receptor is on record as over 244.
`CCn1nnc([C@H]2O[C@@H](n3cnc4c(NCc5ccccc5)nc(NCCc5cn(C)cn5)nc43)[C@H](O)[C@@H]2O)n1` [Example 5, (2R,3R,4S,5R)-2-{6-Benzylamino-2-[2-(1-methyl-1H-imidazol-4-yl)-ethylamino]-purin-9-yl}-5-(2-ethyl-2H-tetrazol-5-yl)-tetrahydro-furan-3,4-diol]: the “A2a EC50 as a ratio of that of NECA” value on adenosine 2a receptor is on record as 0.76. Further, the “A1 EC50 as a ratio of that of NECA” value at adenosine 1 receptor is on record as 700.4. Besides, at adenosine 3 receptor, the “A3 EC50 as a ratio of that of NECA” value is over 181.
The matching figures for `CC(=O)O.CCC(CC)Nc1nc(NCCc2cn(C)cn2)nc2c1ncn2[C@@H]1O[C@H](c2nnn(CC)n2)[C@@H](O)[C@H]1O` [Example 6, (2R,3R,4S,5R)-2-{6-(1-Ethyl-propylamino)-2-[2-(1-methyl-1H-imidazol-4-yl)-ethylamino]-purin-9-yl}-5-(2-ethyl-2H-tetrazol-5-yl)-tetrahydro-furan-3,4-diol Acetate]: 0.14, 34.4 and over 256.
In the same order, the values of `CCn1nnc(C2OC(n3cnc4c(NC5CCCC5)nc(NCCc5cn(C)cn5)nc43)C(O)C2O)n1` [Example 7, (2R,3R,4S,5R)-(2-{6-Cyclopentylamino-2-[2-(1-methyl-1H-imidazol-4-yl)-ethylamino]-purin-9-yl}-5-(2-ethyl-2H-tetrazol-5-yl)-tetrahydro-furan-3,4-diol Acetate] are 0.12, 26.2 and over 161.
The matching figures for `CCn1nnc(C2OC(n3cnc4c(NC(CO)Cc5ccccc5)nc(NCCc5cn(C)cn5)nc43)C(O)C2O)n1` [Example 8, (2R,3S,4R,5R)-2-(2-Ethyl-2H-tetrazol-5-yl)-5-{6-(1S-hydroxymethyl-2-phenyl-ethylamino)-2-[2-(1-methyl-1H-imidazol-4-yl)-ethylamino]-purin-9-yl}-tetrahydro-furan-3,4-diol Acetate]: 0.1, 12.6 and over 133.
Take `CC(=O)O.CCn1nnc([C@H]2O[C@@H](n3cnc4c(NCCC(C)(C)C)nc(NCCc5cn(C)cn5)nc43)[C@H](O)[C@@H]2O)n1` [Example 9, (2R,3R,4S,5R)-2-{6-(3,3-Dimethyl-butylamino)-2-[2-(1-methyl-1H-imidazol-4-yl)-ethylamino]-purin-9-yl}-5-(2-ethyl-2H-tetrazol-5-yl)-tetrahydro-furan-3,4-diol Acetate]: the “A2a EC50 as a ratio of that of NECA” value on adenosine 2a receptor is given as 0.45. For the same compound, the “A1 EC50 as a ratio of that of NECA” value at adenosine 1 receptor was 377. The “A3 EC50 as a ratio of that of NECA” value on adenosine 3 receptor is reported as over 42.
The matching figures for `CCn1nnc(C2OC(n3cnc4c(N)nc(NC5CCCC5O)nc43)C(O)C2O)n1` [Example 10, (2R,3R,4S,5R)-2-[6-Amino-2-(2R-hydroxy-cyclopent-1R-ylamino)-purin-9-yl]-5-(2-ethyl-2H-tetrazol-5-yl)-tetrahydro-furan-3,4-diol Hydrochloride]: 0.11, 22.1 and 3.66.
For the compound `CCn1nnc([C@H]2O[C@@H](n3cnc4c(N)nc(NC5CCCC5)nc43)[C@H](O)[C@@H]2O)n1.O=C(O)C(F)(F)F.O=C(O)C(F)(F)F` [Example 12], the “A2a EC50 as a ratio of that of NECA” value at adenosine 2a receptor was found to be 0.57. For the same compound, the “A1 EC50 as a ratio of that of NECA” value on adenosine 1 receptor worked out at 31.2. In addition, the “A3 EC50 as a ratio of that of NECA” value on adenosine 3 receptor is reported as over 243.
The matching figures for `CCn1nnc([C@H]2O[C@@H](n3cnc4c(N)nc(Nc5ccc(F)cc5)nc43)[C@H](O)[C@@H]2O)n1.O=C(O)C(F)(F)F` [Example 13, (2R,3R,4S,5R)-2-[6-Amino-2-(4-fluoro-phenylamino)-purin-9-yl]-5-(2-ethyl-2H-tetrazol-5-yl)-tetrahydro-furan-3,4-diol Trifluoroacetate]: 0.64, 266.9 and over 232.
The matching figures for `CCn1nnc([C@H]2O[C@@H](n3cnc4c(N)nc(NCCc5ccc(N)cc5)nc43)[C@H](O)[C@@H]2O)n1.O=CO` [Example 14, (2R,3R,4S,5R)-2-{6-Amino-2-[2-(4-amino-phenyl)-ethylamino]-purin-9-yl}-5-(2-ethyl-2H-tetrazol-5-yl)-tetrahydro-furan-3,4-diol Formate]: 0.55, 181.1 and over 209.
The matching figures for `CCn1nnc([C@H]2O[C@@H](n3cnc4c(N)nc(NCCc5ccc(O)c(O)c5)nc43)[C@H](O)[C@@H]2O)n1.O=CO` [Example 15, (2R,3R,4S,5R)-2-{6-Amino-2-[2-(3,4-dihydroxy-phenyl)-ethylamino]-purin-9-yl}-5-(2-ethyl-2H-tetrazol-5-yl)-tetrahydro-furan-3,4-diol Formate]: 0.55, 139.5 and over 209.
As for `CCn1nnc([C@H]2O[C@@H](n3cnc4c(N)nc(NCCc5ccc(O)cc5)nc43)[C@H](O)[C@@H]2O)n1.O=CO` [Example 16, (2R,3R,4S,5R)-2-{6-Amino-2-[2-(4-hydroxy-phenyl)-ethylamino]-purin-9-yl}-5-(2-ethyl-2H-tetrazol-5-yl)-tetrahydro-furan-3,4-diol Formate], the “A2a EC50 as a ratio of that of NECA” value on adenosine 2a receptor came to 0.3. The “A1 EC50 as a ratio of that of NECA” value at adenosine 1 receptor came to 516.4. Besides, the “A3 EC50 as a ratio of that of NECA” value at adenosine 3 receptor is given as over 209.
Turning to `CCn1nnc(C2OC(n3cnc4c(N)nc(NCCc5ccc(S(N)(=O)=O)cc5)nc43)C(O)C2O)n1` (stereo not drawn) [Example 17, 4-(2-{6-Amino-9-[5R-(2-ethyl-2H-tetrazol-5-yl)-3R,4S-Dihydroxy-tetrahydro-furan-2R-yl]-9H-purin-2-ylamino}-ethyl)-benzenesulfonamide Formate], the “A2a EC50 as a ratio of that of NECA” value on adenosine 2a receptor amounted to 0.69. The “A1 EC50 as a ratio of that of NECA” value on adenosine 1 receptor is recorded as 247.6. At adenosine 3 receptor, the “A3 EC50 as a ratio of that of NECA” value was over 346.
For `CCn1nnc([C@H]2O[C@@H](n3cnc4c(N)nc(NCCc5ccc(OC)cc5)nc43)[C@H](O)[C@@H]2O)n1.O=CO` [Example 18, (2R,3R,4S,5R)-2-{6-Amino-2-[2-(4-methoxy-phenyl)-ethylamino]-purin-9-yl}-5-(2-ethyl-2H-tetrazol-5-yl)-tetrahydro-furan-3,4-diol Formate], the “A2a EC50 as a ratio of that of NECA” value at adenosine 2a receptor was 0.36. Further, on adenosine 1 receptor, the “A1 EC50 as a ratio of that of NECA” value was 136.7. In addition, the “A3 EC50 as a ratio of that of NECA” value on adenosine 3 receptor is on record as over 223.
